Measured values reported in US20230241071A1, “COMBINATION TREATMENT OF LIVER DISORDERS” (Terns Pharmaceuticals, Inc., priority 2021, published 2023).
Read-outs that look alike come from different tables or passages of the source.

Assays:
Approximate pKa = type: physicochemical
[1] = Pharmacokinetic evaluation in SD rats; type: in vivo, rat; conditions: 2.0 mg/kg intragastric
Method: Drug Preparation: a certain amount of the drug was taken and added into a 2% Klucel LF+0.1% Tween 80 aqueous solution, to prepare a clear solution or a uniform suspension.
Dosage: SD rats were fasted overnight and given the drug by intragastric infusion at an administrated dose of 2 mg/kg and an administrated volume of 10 mL/kg each.
Operation: rats were dosed by intragastric infusion with the compounds. […] The heparinized sample tubes were then stored at −20° C., and the rats were allowed to eat food 2 h after the dosage.
Determination of contents of the compounds to be tested in the plasma of rats after intragastric infusion of the drugs at different concentrations: the plasma samples were thawed at room temperature, 50 μL each was taken and added into 130 μL of an internal standard working solution (1000 ng/mL, acetonitrile, tolbutamide), and the mixture was whirled for about 1 min and then centrifugated at 4° C. and 13000 rpm for 10 min. 50 μL of the supernatant was taken and mixed with 100 μL of 50% acetonitrile water, and then introduced for LC/MS/MS analysis.

[2] = tested on: SHBG, Apo B and serum lipids; assay: Single-ascending dose trial of Compound 2: serum PD markers; type: in vivo, human; parameters: LDL-c change from baseline / HDL-c change from baseline / TC change from baseline / Apo B change from baseline: unit not given here
Method: Urine samples for Compound 2 concentration and PK sampling were collected pre-dose and at the following timepoints: 0-6 hours, 6-12 hours, 12-24 hours, and 24-48 hours. PK parameters were estimated via noncompartmental methods using Phoenix® WinNonlin® (Certara, LP, Princeton, N.J.). Concentrations of serum pharmacodynamic (PD) biomarkers apolipoprotein B (Apo B) and sex hormone binding globulin (SHBG) were measured using an immunoassay and serum lipids were determined using spectrophotometry.
PD sampling was performed pre-dose, and 48 hours and 72 hours post-dose. Percent change from baseline for PD markers were calculated using an ANCOVA model with percent change from baseline as dependent variable, treatment group as fixed effect, and baseline as covariate. Analyses used observed data only without imputation for missing data.

[3] = Multiple-ascending dose trial of Compound 2 in healthy participants; type: in vivo, human; conditions: for Cmax / AUC / half-life: human, plasma, oral; for AUC: read-out: AUCtau (mean); for half-life: read-out: t1/2 (median) (converted)
Method: A multiple-ascending dose clinical trial of Compound 2 was performed.
Compound 2 plasma and urine concentrations were determined using validated liquid chromatography-tandem mass spectrometry assay.
Plasma samples for Compound 2 concentration and PK sampling were collected pre-dose and at 0.5, 1, 2, 3, 4, 6, 8, 12, and 24 hours after the first dose, at pre-dose on Days 3, 4, 5, 8, 11, and 13 of dosing, and at pre-dose and at 0.5, 1, 2, 3, 4, 6, 8, 12, 24, 48, and 72 hours after 14 days of administration of study medication (placebo or compound). (See Table 16, FIG. 17) PK parameters were estimated via noncompartmental methods using Phoenix® WinNonlin® (Certara, LP, Princeton, N.J.). Concentrations of serum pharmacodynamic (PD) biomarkers apolipoprotein B (Apo B) and sex hormone binding globulin (SHBG) were measured using an immunoassay and serum lipids were determined using spectrophotometry.
PD sampling was also performed. Percent change from baseline for PD markers were calculated using an ANCOVA model with percent change from baseline as dependent variable, treatment group as fixed effect, and baseline as covariate. Analyses used observed data only without imputation for missing data.

[4] = Day 3 after single dose 3 mg (n = 6)
[5] = Day 3 after single dose 10 mg (n = 6)
[6] = Day 3 after single dose 30 mg (n = 6)
[7] = Day 3 after single dose 60 mg (n = 6)

Structure (SMILES): N#Cc1nn(-c2cc(Cl)c(Oc3n[nH]c(=O)c4ccccc34)c(Cl)c2)c(=O)[nH]c1=O [Compound 2, 2-(3,5-dichloro-4-((4-oxo-3,4-dihydrophthalazin-1-yl)oxy)phenyl)-3,5-dioxo-2,3,4,5-tetrahydro-1,2,4-triazine-6-carbonitrile]
- pKa (Approximate pKa): ~4.12
- Curve area [1]: 24790 ± 3704 ng·h/mL
- Peak blood drug concentration [1]: 2007 ± 106 ng/mL
- Time to peak [1]: 4.67 ± 1.15 h
- half-life ([1]; male, rat, plasma, po): 4.56 ± 0.42 h
- LDL-c, total cholesterol, and Apo-B ([2]; Day 3 after single dose): Dose-dependent decreases
- Apo B LSM % change [2, 4]: −2.7%
- Apo B change from baseline [2, 4]: −1.5
- HDL-c LSM % change [2, 4]: 2.4%
- HDL-c change from baseline [2, 4]: 0.87
- LDL-c LSM % change [2, 4]: −3.1%
- LDL-c change from baseline [2, 4]: −3.98
- SHBG LSM % change [2, 4]: 6.3%
- SHBG change from baseline [2, 4]: 0.20 nmol/L
- TC LSM % change [2, 4]: −0.88%
- TC change from baseline [2, 4]: −1.85
- Apo B LSM % change [2, 5]: −6.0%
- Apo B change from baseline [2, 5]: −5.6
- HDL-c LSM % change [2, 5]: −1.0%
- HDL-c change from baseline [2, 5]: −1.1
- LDL-c LSM % change [2, 5]: 0.70%
- LDL-c change from baseline [2, 5]: 0.68
- SHBG LSM % change [2, 5]: 31.3%
- SHBG change from baseline [2, 5]: 15.8 nmol/L
- TC LSM % change [2, 5]: −0.84%
- TC change from baseline [2, 5]: −1.93
- Apo B LSM % change [2, 6]: −11.0%
- Apo B change from baseline [2, 6]: −11.5
- HDL-c LSM % change [2, 6]: −12.1%
- HDL-c change from baseline [2, 6]: −6.1
- LDL-c LSM % change [2, 6]: −12.5%
- LDL-c change from baseline [2, 6]: −15.7
- SHBG LSM % change [2, 6]: 16.5%
- SHBG change from baseline [2, 6]: 6.0 nmol/L
- TC LSM % change [2, 6]: −11.84%
- TC change from baseline [2, 6]: −24.14
- Apo B LSM % change [2, 7]: −15.75%
- Apo B change from baseline [2, 7]: −13.9
- SHBG LSM % change [2, 7]: 13.8%
- SHBG change from baseline [2, 7]: 5.05 nmol/L
- triglyceride levels ([2]; after a single dose): No significant changes
- SHBG relative to placebo ([2]; single doses of ≥10 mg): Significant increases
- AEs by relationship to drug: Not related ([3]; 3 mg QD 14 days (N = 6)): 1 (16.7%) n (%)
- AEs by relationship to drug: Possibly related ([3]; 3 mg QD 14 days (N = 6)): 0 n (%)
- AEs by relationship to drug: Related ([3]; 3 mg QD 14 days (N = 6)): 0 n (%)
- AEs by relationship to drug: Unlikely related ([3]; 3 mg QD 14 days (N = 6)): 0 n (%)
- Subject incidence: Any AE, all CTCAE grades ([3]; 3 mg QD 14 days (N = 6)): 1 (16.7%) n (%)
- Subject incidence: Grade 1 AEs ([3]; 3 mg QD 14 days (N = 6)): 1 (16.7%) n (%)
- Subject incidence: Grade 2 or higher AEs ([3]; 3 mg QD 14 days (N = 6)): 0 n (%)
- Subject incidence: Serious AEs ([3]; 3 mg QD 14 days (N = 6)): 0 n (%)
- AEs by relationship to drug: Not related ([3]; 6 mg QD 14 days (N = 6)): 0 n (%)
- AEs by relationship to drug: Possibly related ([3]; 6 mg QD 14 days (N = 6)): 1 (16.7%) n (%)
- AEs by relationship to drug: Related ([3]; 6 mg QD 14 days (N = 6)): 0 n (%)
- AEs by relationship to drug: Unlikely related ([3]; 6 mg QD 14 days (N = 6)): 0 n (%)
- Subject incidence: Any AE, all CTCAE grades ([3]; 6 mg QD 14 days (N = 6)): 1 (16.7%) n (%)
- Subject incidence: Grade 1 AEs ([3]; 6 mg QD 14 days (N = 6)): 1 (16.7%) n (%)
- Subject incidence: Grade 2 or higher AEs ([3]; 6 mg QD 14 days (N = 6)): 0 n (%)
- Subject incidence: Serious AEs ([3]; 6 mg QD 14 days (N = 6)): 0 n (%)
- AEs by relationship to drug: Not related ([3]; 10 mg QD 14 days (N = 6)): 2 (33.3%) n (%)
- AEs by relationship to drug: Possibly related ([3]; 10 mg QD 14 days (N = 6)): 0 n (%)
- AEs by relationship to drug: Related ([3]; 10 mg QD 14 days (N = 6)): 0 n (%)
- AEs by relationship to drug: Unlikely related ([3]; 10 mg QD 14 days (N = 6)): 0 n (%)
- Subject incidence: Any AE, all CTCAE grades ([3]; 10 mg QD 14 days (N = 6)): 2 (33.3%) n (%)
- Subject incidence: Grade 1 AEs ([3]; 10 mg QD 14 days (N = 6)): 2 (33.3%) n (%)
- Subject incidence: Grade 2 or higher AEs ([3]; 10 mg QD 14 days (N = 6)): 0 n (%)
- Subject incidence: Serious AEs ([3]; 10 mg QD 14 days (N = 6)): 0 n (%)
- Ctau (mean) ([3]; Day 14, 1 mg QD): 25.7 ng/mL
- Ctau (mean) ([3]; Day 14, 3 mg QD): 77.9 ng/mL
- Ctau (mean) ([3]; Day 14, 6 mg QD): 175 ng/mL
- Ctau (mean) ([3]; Day 14, 10 mg QD): 196 ng/mL
- GGT ([3]; QD 14 days): Dose-dependent GGT increases
- TSH or free T3 ([3]; QD 14 days): without clear change
- free T4 ([3]; QD 14 days): declined in dose-dependent fashion
- free testosterone levels ([3]; QD 14 days): no significant change
- heart rate and blood pressure ([3]; QD 14 days): remained stable
- mean ALT values ([3]; QD 14 days): not significantly different from placebo
- oral bioavailability and PK variability ([3]; QD 14 days): good oral bioavailability with low PK variability
- total testosterone ([3]; QD 14 days): Dose-dependent total testosterone increases
- safety and tolerability ([3]; QD 14 days, up to 10 mg): well-tolerated
- HDL-c ([3]; day 15): did not significantly change
- total cholesterol, LDL-c, Apo B, and triglycerides ([3]; day 15, 10 mg dose cohort): significant reductions
- Cmax ([3]; Day 14, 1 mg QD): 80.3 ng/mL
- AUC ([3]; Day 14, 1 mg QD): 1090 ng·h/mL
- half-life ([3]; Day 14, 1 mg QD): 19.5 h
- Cmax ([3]; Day 14, 3 mg QD): 291 ng/mL
- AUC ([3]; Day 14, 3 mg QD): 3600 ng·h/mL
- half-life ([3]; Day 14, 3 mg QD): 16 h
- Cmax ([3]; Day 14, 6 mg QD): 699 ng/mL
- AUC ([3]; Day 14, 6 mg QD): 8310 ng·h/mL
- half-life ([3]; Day 14, 6 mg QD): 15.8 h
- Cmax ([3]; Day 14, 10 mg QD): 996 ng/mL
- AUC ([3]; Day 14, 10 mg QD): 10600 ng·h/mL
- half-life ([3]; Day 14, 10 mg QD): 15.4 h
- SHBG ([3]; multiple doses, even at 3 mg QD): significant and dose-dependent increases
